Here are results for 3 compounds from US12533333B2, “Method of treatment of obesity” (Queen Mary University of London, priority 2016, dated 2026).

The subject of test [1] is phosphorylated CaMKII. The experiment in a line: pCaMKII activation in human colonic mucosa / proximal colon. Type of test: cell-based. The following applies: 100 MM (heading of Example 6), FIG. 9.
Test [2] deals with phosphorylated ERK. In words: pERK activation in human colonic mucosa / proximal colon. Type of test: cell-based.
Test [3] concerns phosphorylated CaMKII. The settings on record: via GPR120, not via pERK; background; cited from earlier work.
Test [4] deals with phosphorylated ERK. The settings on record: human colonic mucosa / enteroendocrine cells, previously shown; cited from earlier work.
For test [5] the following is noted: infused into the small intestine through a nasogastric tube; cited from earlier work.
For test [6] the following is noted: in vivo; cited from earlier work.

The structures appear in SMILES notation. Entries after “also recorded” stand apart in the source; their conditions may differ.

`CC/C=C\C/C=C\C/C=C\CCCCCCCC(=O)O` [ALA, (9Z,12Z,15Z)-9,12,15-Octadecatrienoic acid]: in the test on phosphorylated CaMKII [1], the “expression of cell activation marker pCamKii” value is reported as “potently induce expression; also recorded: activate”. Also, the “expression of cell activation marker pERK” value in the test on phosphorylated ERK [2] (human colonic mucosa, 100 MM (heading of Example 6), FIG. 9) is “potently induce expression; also recorded: activate”. Further, the “activation of pCalmodulin kinase II (pCAMKII)” value in the test with phosphorylated CaMKII [3] is “activate”.

Take `CCCCCCCCCCCC(=O)O` [lauric acid]: in the test with phosphorylated ERK [4], the “activation of intracellular pathway as measured by phosphorylated ERK” value is “activates”. Moreover, in test [5], the food intake entry is “reduces food intake more potently than other fatty acids”. Further, in test [6], the “plasma levels of glucagon-like peptide-1 (GLP-1)” value was “increasing” and the “plasma levels of peptide YY (PYY)” value is recorded as “increasing”.

Turning to `c1ccc2c(Cc3c[nH]c4ccccc34)c[nH]c2c1` [DIM, 3,3′-diindolylmethane], the “activation of pERK in colonocytes” value with phosphorylated ERK [2] (in combination with GPR120 agonist TUG891 and GPR84 agonist lauric acid (FIG. 8)) is “potently activates”.
